Experimental data taken from patent US10183020B2 (AstraZeneca AB, priority 2014, dated 2019).

Experiments:
wild-type EGFR lines = conditions: in vitro, compared with mutant cell lines; cited from earlier work
[1] = Solubility of AZD9291 in simulated gastric fluid, human intestinal fluid and at intestinal pH
From the text: (§1) In such cases, where the solubility of a drug varies with pH, and particularly when the solubility is highest at acidic pH, there is a problem that the drug may precipitate from solution as it passes through the gastrointestinal tract. Drugs need to be in solution in order to be absorbed, so such precipitation can lead to variability in the extent and/or rate of absorption of the drug. […] In principle, the dose administered to a patient could be increased to account for potentially poor absorption, but this approach introduces a risk that too much of the drug may enter the patient's system in some cases—which may be a safety risk and/or increase the risk/severity of side-effects. […] Accordingly, there remained a problem to provide an improved way of dosing the Agent to patients that should reduce/avoid the risk of and/or severity of the above-mentioned problems of inter-patient variability of absorption and/or inter-dose variability of absorption.

Permeability = type: in vitro ADME
From the text: as §1

[2] = tested on: EGFRm+ sensitising and the T790M resistance mutant forms of EGFR; conditions: cited from earlier work
[3] = tested on: advanced EGFRm T790M+ lung adenocarcinoma; assay: Phase 1 clinical trial; type: in vivo, human; conditions: a number of patients; Agent in the form of the mesylate salt
From the text: Further details of this ‘blend in capsule’ formulation are described hereinafter as ‘Comparative Example 1’.

[4] = tested on: EGFRm+ and T790M mutant cell lines; conditions: in vitro; cited from earlier work
[5] = tested on: EGFRm+ and T790M mutant tumour xenograft and transgenic models; conditions: doses as low as 5 mg/kg/day; cited from earlier work
[6] = Stability of solution (precipitation); type: physicochemical; conditions: solution once formed

Q: Which “activity against wild-type EGFR lines” value (wild-type EGFR lines) does the source give for `C=CC(=O)Nc1cc(Nc2nccc(-c3cn(C)c4ccccc34)n2)c(OC)cc1N(C)CCN(C)C` [AZD9291, N-(2-{2-dimethylaminoethyl-methylamino}-4-methoxy-5-{[4-(1-methylindol-3-yl)pyrimidin-2-yl]amino}phenyl)prop-2-enamide] here?
A: Its value is “much less activity”.

Q: What about the pH dependent solubility [1] of the same compound?
A: The pH dependent solubility was “significant pH dependent solubility”.

Q: And the permeability (Permeability)?
A: Its permeability is “moderate permeability”.

Q: And the “inhibition of EGFRm+ sensitising and T790M resistance mutant forms of EGFR” value [2]?
A: The value was “potent inhibitor”.

Q: And the clinical response [3]?
A: Its clinical response is “partial responses”.

Q: What about the “inhibition of EGFR signaling pathways and cellular growth” value [4] of the same compound?
A: The value was “potently inhibits”.

Q: What about the tumor regression [5] of the same compound?
A: Its tumor regression is “profound and sustained tumor regression”.

Q: What does the source list for AZD9291 mesylate?
A: solubility at intestinal pH compared with AZD9291 in free base form ([1]; intestinal pH): significantly higher; period over which solution is stable without precipitation [6]: at least 24 hours
